This passage reports IC50 results from patent US20240391882A1 (Mirati Therapeutics, Inc., priority 2023, published 2024).

Type in all cases: cell-based
Assay [1] deals with pAKT in T47D (PI3Kα H1047R mutant) cells. Description: Inhibition of pAKT (alphaLISA Surefire Ultra AKT 1/2/3 pS473) in T47D cells. The conditions noted are these: Homo sapiens; T47D (PI3Kα H1047R mutant) cells, 24 hr compound incubation, alphaLISA pS473; read-out: T47D (H1047R) pAKT 24 hr (IC50). A digest of the protocol:
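Cells in HBSS were dosed from 10.4 μm (1:4 serial dilution, 10 concentrations) and incubated about 24 hours at 37° C, then lysed. pAKT S473 measured by alphaLISA after overnight bead incubation. Signal normalised to alpelisib (3.125 μm) and DMSO controls; IC50 from four-parameter fit.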

In assay [2] the test system is T47D (PI3Kα H1047R mutant) cells. Description: Cell viability (CellTiter-Glo 2.0) in T47D cells. As to conditions: Homo sapiens, T47D, 72 h, approximately 72 hours. The procedure, abridged:
(§1)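 SKBR3 or T47D cells, 1000 per well, were seeded overnight and then exposed ~72 h at 37° C to 10 concentrations of compound, 1:4 dilutions from 10 μm. Viability read by CellTiter-Glo luminescence as percent of vehicle; IC50 from four-parameter variable-slope fit.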

Assay [3] concerns SKBR3 (PI3Kα wild type) cells. Put plainly: Cell viability (CellTiter-Glo 2.0) in SKBR3 cells. As to conditions: Homo sapiens, SK-BR-3; SKBR3 (PI3Kα wild type) cells, approximately 72 hours, CellTiter-Glo 2.0; read-out: SKBR3 (WT) Viability IC50. The procedure, abridged:
as §1

`Cc1cc([C@@H](C)Nc2ccc(Cl)nc2C(=O)O)c2nc(N3CC4C(F)C4C3)c(C#N)nc2c1` (stereo partly drawn) [Example 215, 6-chloro-3-(((1R)-1-(2-cyano-3-(6-fluoro-3-azabicyclo[3.1.0]hexan-3-yl)-7-methylquinoxalin-5-yl)ethyl)amino)picolinic acid]: the results for the IC50 in assay [1], in assay [2] and in assay [3] were 1.6 nM, 28 nM and over 10000 nM, respectively.
On the same counts, the results for `Cc1cc([C@@H](C)Nc2ccc(Cl)nc2C(=O)O)c2nc(N3CCC4(COC4)C3)c(C#N)nc2c1` [Example 240, (R)-6-chloro-3-((1-(2-cyano-7-methyl-3-(2-oxa-6-azaspiro[3.4]octan-6-yl)quinoxalin-5-yl)ethyl)amino)picolinic acid] are 1.6 nM, 16 nM and 7990 nM.
On the same counts, the results for `Cc1cc([C@@H](C)Nc2ccc(Cl)nc2C(=O)O)c2nc(N3CCc4ccn(C)c(=O)c4C3)c(C#N)nc2c1` [Example 222, (R)-6-chloro-3-((1-(2-cyano-7-methyl-3-(7-methyl-8-oxo-3,4,7,8-tetrahydro-2,7-naphthyridin-2(1H)-yl)quinoxalin-5-yl)ethyl)amino)picolinic acid] are 4.2 nM, 225 nM and over 10000 nM.
The like results for `Cc1cc([C@@H](C)Nc2ccccc2C(=O)O)c2nc(N3CCN(C(=O)C[C@@H]4CC4(F)F)CC3)c(C#N)nc2c1` (single isomer, unassigned) [Example 197] were, in that order, 1.8 nM, 105 nM and over 10000 nM.
As to `Cc1cc([C@H](C)Nc2ccccc2C(=O)O)c2nc(N3CCC(F)(F)CC3)c(C#N)nc2c1` [Example 4, (S)-2-((1-(2-cyano-3-(4,4-difluoropiperidin-1-yl)-7-methylquinoxalin-5-yl)ethyl)amino)benzoate], the half-inhibitory concentration (IC50) in assay [1] was 844 nM; in assay [2], 9330 nM; in assay [3] it was over 10000 nM.
For `C[C@@H](Nc1ccccc1C(=O)O)c1cc(C#N)cc2nc(C#N)c(N3CCC(F)(F)CC3)nc12` [Example 28, (R)-2-((1-(2,7-dicyano-3-(4,4-difluoropiperidin-1-yl)quinoxalin-5-yl)ethyl)amino)benzoic acid], the IC50 was 48.3 nM in assay [1], 2140 nM in assay [2] and over 10000 nM in assay [3].
Regarding `Cc1cc([C@@H](C)Nc2ccc(Cl)nc2C(=O)O)c2nc(N3CCO[C@@H]4C[C@@H]43)c(C#N)nc2c1` (single isomer, unassigned) [Example 239A], the IC50 is 1 nM in assay [1], 39 nM in assay [2] and over 10000 nM in assay [3].
Consider `Cc1cc([C@@H](C)Nc2ccc(Cl)nc2C(=O)O)c2nc(N3CCO[C@@H](CO)C3)c(C#N)nc2c1` [Example 235B, 6-chloro-3-(((R)-1-(2-cyano-3-((R)-2-(hydroxymethyl)morpholino)-7-methylquinoxalin-5-yl)ethyl)amino)picolinic acid], for which the IC50 in assay [1] is 1.8 nM; in assay [2], 262 nM; in assay [3], over 10000 nM.
For `C[C@H](Nc1ccccc1C(=O)O)c1cc(C#N)cc2nc(C#N)c(N3CCC(F)(F)CC3)nc12` [Example 27, (S)-2-((1-(2,7-dicyano-3-(4,4-difluoropiperidin-1-yl)quinoxalin-5-yl)ethyl)amino)benzoic acid], the figures for the half-inhibitory concentration (IC50) in assay [1], in assay [2] and in assay [3] were 1140 nM, over 10000 nM and over 10000 nM, respectively.
With `C[C@H](Nc1ccccc1C(=O)O)c1cc(Cl)cc2nc(C#N)c(N3CCC(F)(F)CC3)nc12` [Example 29, (S)-2-((1-(7-chloro-2-cyano-3-(4,4-difluoropiperidin-1-yl)quinoxalin-5-yl)ethyl)amino)benzoic acid], the concentration for half-maximal inhibition (IC50) in assay [1] is 117 nM; in assay [2] it was 3480 nM; in assay [3], over 10000 nM.
On to `Cc1cc([C@@H](C)Nc2ccc(Cl)nc2C(=O)O)c2nc(N3CC[C@@]4(CCCO4)C3)c(C#N)nc2c1` (single isomer, unassigned) [Example 253A], for which the 50% inhibitory concentration (IC50) in assay [1] was determined as 5.6 nM; in assay [2], 197 nM; in assay [3] it was 6850 nM.
Turning to `Cc1cc([C@@H](C)Nc2ccc(Cl)nc2C(=O)O)c2nc(N3C[C@H](C)OC[C@H]3C)c(C#N)nc2c1` [Example 238A, 6-chloro-3-(((R)-1-(2-cyano-3-((2S,5R)-2,5-dimethylmorpholino)-7-methylquinoxalin-5-yl)ethyl)amino)picolinic acid], the results for the IC50 in assay [1], in assay [2] and in assay [3] were 10.4 nM, 216 nM and over 10000 nM, respectively.
Consider `Cc1cc([C@@H](C)Nc2ccc(Cl)nc2C(=O)O)c2nc(N3C[C@H]4C[C@@H]3CC4(F)F)c(C#N)nc2c1` (single isomer, unassigned) [Example 9], for which the IC50 in assay [1] stood at 7.5 nM; in assay [2], 65.1 nM; in assay [3], 3400 nM.
On the same counts, the results for `Cc1cc([C@@H](C)Nc2ccc(Cl)nc2C(=O)O)c2nc(N3C[C@@H]4CO[C@@H](C4)C3)c(C#N)nc2c1` (single isomer, unassigned) [Example 243A] are 0.34 nM, 62 nM and 2860 nM.
The like results for `Cc1cc([C@@H](C)Nc2ccc(Cl)nc2C(=O)O)c2nc(N3C[C@H]4CSC[C@H]4C3)c(C#N)nc2c1` [Example 848, 6-chloro-3-(((R)-1-(2-cyano-7-methyl-3-cis-tetrahydro-1h-thieno[3,4-c]pyrrol-5(3H)-ylquinoxalin-5-yl)ethyl)amino)picolinic acid] were, in that order, 1.7 nM, 90 nM and 7680 nM.
On the same counts, the results for `Cc1cc([C@@H](C)Nc2ccc(Cl)nc2C(=O)O)c2nc(N3CC4C[C@@]4(C(F)(F)F)C3)c(C#N)nc2c1` (single isomer, unassigned) [Example 43A] are 4.8 nM, 99 nM and over 10000 nM.
`Cc1cc([C@@H](C)Nc2ccc(Cl)nc2C(=O)O)c2nc(N3CCOCC3)c(C#N)nc2c1` [Example 58, (R)-6-chloro-3-((1-(2-cyano-7-methyl-3-morpholinoquinoxalin-5-yl)ethyl)amino)picolinic acid]: the IC50 came to 1.8 nM in assay [1], 24 nM in assay [2] and 3500 nM in assay [3].
On the same counts, the results for `Cc1cc([C@@H](C)Nc2ccc(Cl)nc2C(=O)O)c2nc(N3CCO[C@@H](C(F)(F)F)C3)c(C#N)nc2c1` [Example 190B, 6-chloro-3-(((R)-1-(2-cyano-7-methyl-3-((R)-2-(trifluoromethyl)morpholino)quinoxalin-5-yl)ethyl)amino)picolinic acid] are 17.3 nM, 764 nM and over 10000 nM.
The like results for `CO[C@H](C)C1CCN(c2nc3c([C@@H](C)Nc4ccc(Cl)nc4C(=O)O)cc(C)cc3nc2C#N)CC1` (single isomer, unassigned) [Example 195A] were, in that order, 0.47 nM, 84.1 nM and over 10000 nM.
Turning to `Cc1cc([C@@H](C)Nc2ccc(Cl)nc2C(=O)O)c2nc(N3CC4(C3)CC(F)(F)C4)c(C#N)nc2c1` [Example 255, (R)-6-chloro-3-((1-(2-cyano-3-(6,6-difluoro-2-azaspiro[3.3]heptan-2-yl)-7-methylquinoxalin-5-yl)ethyl)amino)picolinic acid], the IC50 in assay [1] is 3.7 nM; in assay [2], 170 nM; in assay [3], over 10000 nM.
